Legend:
[1] = tested on: HepaRG cells; test: Kinetics of test compound disappearance in HepaRG cell culture (HPLC); format: in vitro ADME, human; conditions: 30 µmol/L, 37°C; mean (95% confidence interval), four experiments
Method: Undifferentiated cryopreserved HepaRG cells (BioPredic International) were seeded in 12 or 24 well plates at 1.1 × 10^5 and 0.55 × 10^5 cells per well, respectively. Cells were cultured for 14 days in Williams E‐medium supplemented with 1% penicillin‐streptomycin (10 000 U/mL), 10% fœtal bovine serum (FBS), 50 mg/L hydrocortisone hemisuccinate, 5 mg/L insulin and 2 mmol/L Glutamax, and the medium was renewed every 2‐3 days. After 14 days, the culture medium was replaced by the same formulation as above supplemented with 2% dimethyl sulfoxide (DMSO) to induce differentiation. Cells were considered differentiated and ready for experiments after 14 days of differentiation (28 days after seeding).
Differentiated HepaRG cells, plated in 24 well plates, were washed with hepatocyte suspension medium (Williams E‐medium without phenol red, supplemented with 2 mmol/L Glutamax and […] HEPES) before addition of hepatocyte suspension medium (250 µL/well) containing (30 or 50 µmol/L) of the test compounds or their diluent. Cells were then incubated for 7.5, 15, 30, 60 or 90 minutes at 37°C after which the medium was removed.
In experiments where the test compounds incubated with HepaRG cells were to be measured, the cell layer was washed with 250 µL of hepatocyte suspension medium which was then pooled with the first medium. The mixture was then added to 250 µL of ice cold CH3OH:CH3CN (1:1, vol:vol) containing 10 µmol/L of phenethyl 3,4,5‐trimethoxycinnamate as an internal standard. The resulting solution was frozen at −80°C for 2 hour to precipitate any dissolved proteins, centrifuged at 1800g and the supernatant transferred to vials and stored at −20°C until HPLC analysis.
Figure 5 Kinetics of test compound disappearance in HepaRG cell culture. (A) HepaRG cells were incubated in 250 µL of hepatocyte suspension medium containing 30 µmol/L of test compounds for the indicated times at 37°C. Supernatants were removed and added to 250 µL of ice cold CH3OH:CH3CN (1:1 vol:vol) containing 10 µmol/L of phenethyl 3,4,5‐trimethoxycinnamate as an internal standard. The cell layer was washed with 250 µL of hepatocyte suspension medium and added to the above mixture. Samples were centrifuged at 1900g and the supernatants were collected for HPLC analysis as described in the Methods. Values are means ± SEM. (B) Calculated half‐lives of the test compounds in HepaRG cell cultures. Values are means (95% confidence interval). All data are from four independent experiments TEXT PRINTED IN THE PICTURE: (B) CAPE (2): Half-life (Minutes): 4.70 (4.42 - 5.02) | (B) 7: Half-life (Minutes): 6.42 (5.72 -7.31) | (B) 5: Half-life (Minutes): 3.71 (3.67-3.74) | (B) 8: Half-life (Minutes): 6.48 (6.01-7.04) | (B) 9: Half-life (Minutes): 4.38 (4.23 - 4.55) | (B) 10: Half-life (Minutes): 11.32 (10.21- 12.71)

[2] = molecular target: T1, 5‐LO (Homo sapiens, UniProt P09917); test: Biosynthesis of 5‐LO products in thapsigargin‐stimulated human PMNL; format: cell-based; design: endogenous in cells; host or cells: human polymorphonuclear leukocytes isolated from heparinized blood; conditions: for IC50: 5‐LO product biosynthesis in human PMNL, mean (95% confidence interval); for Inhibition of LT biosynthesis in human PMNL: 1 μmol/L, 5 min, 1 μmol/L thapsigargin 15 min
T1 sequence (P09917 1-674): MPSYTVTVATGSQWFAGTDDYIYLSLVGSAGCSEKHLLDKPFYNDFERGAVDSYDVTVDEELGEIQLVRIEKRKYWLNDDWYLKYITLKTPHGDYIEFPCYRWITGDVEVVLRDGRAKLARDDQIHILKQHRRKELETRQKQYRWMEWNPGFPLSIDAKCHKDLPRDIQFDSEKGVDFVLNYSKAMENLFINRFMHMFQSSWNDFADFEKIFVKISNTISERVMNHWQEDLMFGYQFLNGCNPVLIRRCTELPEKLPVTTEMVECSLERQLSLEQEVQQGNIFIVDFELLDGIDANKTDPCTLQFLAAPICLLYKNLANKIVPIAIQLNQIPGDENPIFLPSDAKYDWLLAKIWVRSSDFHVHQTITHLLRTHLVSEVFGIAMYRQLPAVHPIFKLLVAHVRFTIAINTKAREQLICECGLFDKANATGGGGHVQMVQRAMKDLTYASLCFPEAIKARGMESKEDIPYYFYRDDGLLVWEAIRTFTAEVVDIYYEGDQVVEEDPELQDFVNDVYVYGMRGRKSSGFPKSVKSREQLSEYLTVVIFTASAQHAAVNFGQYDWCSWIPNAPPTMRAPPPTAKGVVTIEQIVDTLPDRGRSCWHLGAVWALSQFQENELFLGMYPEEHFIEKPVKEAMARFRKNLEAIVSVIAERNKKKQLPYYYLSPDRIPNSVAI
Method: Heparinized blood (see Ethics statement) was collected, centrifuged at 200g for 10 minutes to collect plasma, and erythrocytes were sedimented in dextran. PMNL were obtained after centrifugation on a lymphocyte separation medium cushion (density, 1.077 g/mL) (Wisent) at 900 g for 20 minutes, followed by hypotonic lysis to remove residual erythrocytes.33 PMNL were counted and resuspended at 10^7 cells/mL in HBSS supplemented with 1.6 mmol/L CaCl2 and 0.3 U/mL adenosine deaminase (Sigma‐Aldrich). PMNL were preincubated with the test compounds or their diluent (0.1% DMSO) for 5 minutes at 37°C and were then stimulated with 1 µmol/L thapsigargin (Sigma‐Aldrich) for 15 minutes at 37°C.27 Reactions were stopped by adding two volumes of CH3OH:CH3CN (1:1) containing the internal standard PGB2 (100 ng/mL), and samples were processed for RP‐HPLC analysis of 5‐LO products.
(A) The structures of CAPE (2) and its analogues investigated in this study. (B) Isolated human PMNL were incubated in presence of test compounds (1 μmol/L) or their diluent (Control, 0.1% DMSO) for 5 minutes. PMNL were stimulated with 1 μmol/L of thapsigargin for 15 minutes at 37°C. The stimulation was then stopped, and samples were processed for analysis of 5‐LO products using RP‐HPLC. Total 5‐LO products measured represent LTB4, its trans isomers, 20‐OH‐LTB4, 20‐COOH‐LTB4 and 5‐hydroxyeicosatetraenoic acid. Data are expressed as means ± SEM of at least three independent experiments. *Difference from control, as determined using one‐way ANOVA with Dunnett's multiple comparison test (P < .05)

| SMILES | Half-life in HepaRG cell cultures [1] | IC50 [2] [nM] | Inhibition of LT biosynthesis in human PMNL [2] |
| --- | --- | --- | --- |
| O=C(/C=C/c1ccc(O)c(O)c1)OCCc1ccccc1 [CAPE (2), caffeic acid phenethyl ester, reference compound] | 4.70 (4.42 - 5.02) Minutes | 970 |  |
| COc1cc(/C=C/C(=O)CCc2ccccc2)cc(OC)c1O [compound 10, sinapic acid phenethyl ketone] | 11.32 (10.21- 12.71) Minutes | 410 | near complete inhibition |
| O=C(/C=C/c1cc(O)ccc1O)OCCc1ccccc1 [compound 5] | 3.71 (3.67-3.74) Minutes | 320 | near complete inhibition |

Continued, values first:

| Half-life in HepaRG cell cultures [1] | IC50 [2] [nM] | Inhibition of LT biosynthesis in human PMNL [2] | SMILES |
| --- | --- | --- | --- |
| 6.42 (5.72 -7.31) Minutes | 520 | near complete inhibition | O=C(/C=C/c1ccc(O)c(O)c1)CCCc1ccccc1 [compound 7] |
| 6.48 (6.01-7.04) Minutes | 510 |  | O=C(/C=C/c1cc(O)ccc1O)CCc1ccccc1 [compound 8] |

From paper PMC6743424, “Phenolic acid phenethylesters and their corresponding ketones: Inhibition of 5‐lipoxygenase and stability in human blood and HepaRG cells” (Pharmacology Research & Perspectives, 2019)
